The values that follow come from patent US8685942B2, “Sophorolipid analog compositions” (priority 2010, dated 2014).

In one data set the test system is A. alternate. Kind of data set: Antifungal MIC, 96 well microplate, spore suspension. Format: cell-based. To be noted: 168 h. On the procedure: (§1) Sophorolipid samples were dissolved in 5% ethanol solution to a final concentration of 5 mg/mL and used as a stock solution. The stock solution (100 μl) was added into a 96 well microplate and serially diluted from 2.5 mg/ml to 0.0024 mg/ml using culture medium. After serial dilution, 80 μl of fresh culture medium and 20 μl of spore suspension were added to each well and the plates were incubated for 7 days. The minimum inhibitory concentration (MIC) was determined to measure antifungal activity of sophorolipid-derived compounds. MIC values for antifungal activity were determined by absence of visible growth in the micro wells containing sophorolipid after 7 days of incubation.
as §1, §1

The next data set relates to A. solani. Described as above. In kind it is cell-based. On the procedure: as §1, §1, §1
The next data set deals with Alternariatomatophilia. The data set is described as above. Format: cell-based. The procedure:
as §1, §1, §1

In the next data set the test system is Botrytis cinerea. The description is as above. Format: cell-based. On the procedure: as §1, §1, §1
A further data set relates to pathogens. Nature of the data set: Antifungal MIC screen, summary over the pathogen panel. Format: cell-based. To be noted: of the eight pathogens of Tables 2-4. On the procedure: as §1, with “The hydrogenated lactonic sophorolipids have antifungal activity, which were confirmed by experiment and observations. Sophorolipid” for “Sophorolipid”, “incubation. Natural and lactonic SLs were active against four pathogens, whereas hydrogenated lactonic and acidic SLs active against three and two pathogens respectively.” for “incubation.”
as §1, with “The acidic sophorolipid esters have antifungal activity, which were confirmed by experiment and observations. Sophorolipid” for “Sophorolipid”
as §1, with “The acidic sophorolipid amide derivatives have antifungal activity, which were confirmed by experiment and observations. Sophorolipid” for “Sophorolipid”

The next data set concerns vaginal cell. As to conditions: cited from earlier work.
In the next data set the test system is Phytophthoracapsici. Kind of data set: Antifungal MIC, 96 well microplate, spore suspension. Format: cell-based. To be noted: absence of visible growth after 7 days, diluted from 2.5 to 0.0024 mg/ml. On the procedure:
as §1, §1, §1

The subject of another data set is Salmonella choleraesuis. To be noted: cited from earlier work.
The test system of the next data set is Eserichia coli. To be noted: cited from earlier work.
The subject of another data set is Rhodoccocuserythropolis. As to conditions: cited from earlier work.
The next data set relates to Moraxella. As to conditions: cited from earlier work.
In the next data set the test system is Ralstoniaeutropha. To be noted: cited from earlier work.
For another data set, the system named is Fusarimoxysporium. Nature of the data set: Antifungal MIC, 96 well microplate, spore suspension. Format: cell-based. To be noted: absence of visible growth after 7 days, diluted from 2.5 to 0.0024 mg/ml. On the procedure:
as §1, §1, §1

A further data set deals with Phytophthorainfestans. The data set is described as above. In kind it is cell-based. To be noted: absence of visible growth after 7 days, diluted from 2.5 to 0.0024 mg/ml. The procedure: as §1, §1, §1
The mark [1] stands for this setting: A. solani, absence of visible growth after 7 days, diluted from 2.5 to 0.0024 mg/ml.
[2] abbreviates: Alternariatomatophilia, absence of visible growth after 7 days, diluted from 2.5 to 0.0024 mg/ml.

SMILES strings stand for the structures. In brackets after ≈: the same amount, converted by molar mass. Like-named read-outs stand apart in the source and are kept apart here.

`CC(CCCCCC/C=C\CCCCCCCC(=O)NCC[N+](C)(C)C)OC1OC(CO)C(O)C(O)C1OC1OC(CO)C(O)C(O)C1O` (centres unmarked) [SL-AM-4, (Z)-2-(17-((4,5-dihydroxy-6-(hydroxymethyl)-3-((3,4,5-trihydroxy-6 (hydroxyl methyl)tetrahydro-2H-pyran-2-yl)oxy)tetrahydro-2H-pyran-2-yl)oxy)octadec-9-enamido)-N,N,N-trimethylethanaminium iodide]: the MIC in the data set on A. alternate (A. alternate, absence of visible growth after 7 days, diluted from 2.5 to 0.0024 mg/ml, read-out: MIC) is 1250 µg/mL; in the data set on A. solani (Alternaria solani, 168 h, A. solani, absence of visible growth after 7 days, diluted from 2.5 to 0.0024 mg/ml, read-out: MIC) it was 600 µg/mL; with Alternariatomatophilia (168 h, Alternariatomatophilia, absence of visible growth after 7 days, diluted from 2.5 to 0.0024 mg/ml, read-out: MIC) it was 150 µg/mL; in the data set on Botrytis cinerea (168 h, absence of visible growth after 7 days, diluted from 2.5 to 0.0024 mg/ml, read-out: MIC), 600 µg/mL. The “number of pathogens active against” value with pathogens is “four”.

`CCCCOC(=O)CCCCCCC/C=C\CCCCCCC(C)OC1OC(COC(C)=O)C(O)C(O)C1OC1OC(COC(C)=O)C(O)C(O)C1O` (centres unmarked) [SL-E-8] returned an MIC against A. solani (setting [1]) of 1250 µg/mL (≈ 1640 µM). Further, in the data set with pathogens, the “number of pathogens active against” value is recorded as “one”.

On to `CCOC(=O)CCCCCCC/C=C\CCCCCCC(C)O[C@@H]1O[C@H](COC(C)=O)[C@@H](O)[C@H](O)[C@H]1O[C@@H]1O[C@H](COC(C)=O)[C@@H](O)[C@H](O)[C@H]1O` (some centres unmarked) [sophorolipid diacetate ethyl ester], for which, in the data set on vaginal cell, the vaginal cell toxicity result was “induces sufficient vaginal cell toxicity to raise concerns”.

The compound `CCOC(=O)CCCCCCC/C=C\CCCCCCC(C)OC1OC(CO)C(O)C(O)C1OC1OC(COC(C)=O)C(O)C(O)C1O` (centres unmarked) [SL-E-4] returned an MIC against Phytophthoracapsici of 600 µg/mL (≈ 866 µM). Further, the MIC100 with Salmonella choleraesuis is 5000 µg/mL (≈ 7220 µM); in the data set with Eserichia coli, 5000 µg/mL (≈ 7220 µM); in the data set on Rhodoccocuserythropolis, 6.86 µg/mL (≈ 9.9 µM); in the data set on Moraxella, 20.5 µg/mL (≈ 29.6 µM); with Ralstoniaeutropha it was 5000 µg/mL (≈ 7220 µM). Further, the “number of pathogens active against” value in the data set with pathogens is on record as “one”.

In the case of `CC(CCCCCC/C=C\CCCCCCCC(=O)NCCN(C)C)OC1OC(CO)C(O)C(O)C1OC1OC(CO)C(O)C(O)C1O` (centres unmarked) [SL-AM-3, (Z)-17-((4,5-dihydroxy-6-(hydroxymethyl)-3-((3,4,5-trihydroxy-6-(hydroxymethyl)tetrahydro-2H-pyran-2-yl)oxy)tetrahydro-2H-pyran-2-yl)oxy)-N-(2-(dimethylamino)ethyl)-octadec-9-enamide], the MIC in the data set on A. alternate is 1250 µg/mL (≈ 1800 µM); against A. solani (Alternaria solani, 168 h), 150 µg/mL (≈ 216 µM); against Alternariatomatophilia (168 h), 300 µg/mL (≈ 433 µM); in the data set on Botrytis cinerea (168 h), 600 µg/mL (≈ 866 µM). For the same compound, the “number of pathogens active against” value in the data set with pathogens was “four”.

Consider `COC(=O)CCCCCCC/C=C\CCCCCCC(C)OC1OC(CO)C(O)C(O)C1OC1OC(CO)C(O)C(O)C1O` (centres unmarked) [SL-E-1, sophorolipid methyl ester], for which the results for the MIC in the data set on Phytophthoracapsici, with Fusarimoxysporium and in the data set on A. solani (setting [1]) were 1250 µg/mL (≈ 1960 µM), 2500 µg/mL (≈ 3930 µM) and 2500 µg/mL (≈ 3930 µM), respectively. Besides, the MIC100 with Salmonella choleraesuis was 1670 µg/mL (≈ 2620 µM); with Eserichia coli, 1670 µg/mL (≈ 2620 µM); in the data set on Rhodoccocuserythropolis, 5000 µg/mL (≈ 7850 µM); with Moraxella it was 61.7 µg/mL (≈ 96.9 µM); in the data set with Ralstoniaeutropha it was 5000 µg/mL (≈ 7850 µM). For the same compound, in the data set with pathogens, the “number of pathogens active against” value is on record as “three”.

In turn, `CCCCOC(=O)CCCCCCC/C=C\CCCCCCC(C)OC1OC(CO)C(O)C(O)C1OC1OC(COC(C)=O)C(O)C(O)C1O` (centres unmarked) [SL-E-6] displayed a minimum inhibitory concentration (MIC) against Phytophthoracapsici of 600 µg/mL (≈ 832 µM). Also, the “number of pathogens active against” value in the data set with pathogens is recorded as “one”.

For the compound `CCCCCCOC(=O)CCCCCCC/C=C\CCCCCCC(C)OC1OC(CO)C(O)C(O)C1OC1OC(CO)C(O)C(O)C1O` (centres unmarked) [SL-E-9], the MIC100 with Salmonella choleraesuis is 5000 µg/mL (≈ 7070 µM); in the data set with Eserichia coli, 1670 µg/mL (≈ 2360 µM); in the data set with Moraxella, 1670 µg/mL (≈ 2360 µM); with Ralstoniaeutropha, 5000 µg/mL (≈ 7070 µM).

Regarding `CC(CCCCCC/C=C\CCCCCCCC(=O)NCCO)OC1OC(CO)C(O)C(O)C1OC1OC(CO)C(O)C(O)C1O` (centres unmarked) [SL-AM-1], the MIC came out at 2500 µg/mL (≈ 3750 µM) with Alternariatomatophilia (setting [2]) and 2500 µg/mL (≈ 3750 µM) against Botrytis cinerea (absence of visible growth after 7 days, diluted from 2.5 to 0.0024 mg/ml).

In turn, `CCOC(=O)CCCCCCC/C=C\CCCCCCC(C)OC1OC(COC(C)=O)C(O)C(O)C1OC1OC(COC(C)=O)C(O)C(O)C1O` (centres unmarked) [SL-E-5] had an MIC in the data set with Phytophthoracapsici of 600 µg/mL (≈ 816 µM). For the same compound, the MIC100 in the data set on Salmonella choleraesuis was 5000 µg/mL (≈ 6800 µM); in the data set with Eserichia coli it was 5000 µg/mL (≈ 6800 µM); with Rhodoccocuserythropolis, 5000 µg/mL (≈ 6800 µM); with Moraxella it was 61.7 µg/mL (≈ 84 µM); in the data set on Ralstoniaeutropha it was 5000 µg/mL (≈ 6800 µM). Also, the “number of pathogens active against” value in the data set with pathogens is given as “one”.

For `CC(CCCCCC/C=C\CCCCCCCC(=O)O)OC1OC(CO)C(O)C(O)C1OC1OC(CO)C(O)C(O)C1O` (centres unmarked) [SL-A-4], the MIC100 was 5000 µg/mL (≈ 8030 µM) in the data set with Salmonella choleraesuis; 5000 µg/mL (≈ 8030 µM) with Eserichia coli; 560 µg/mL (≈ 899 µM) in the data set with Rhodoccocuserythropolis; 5000 µg/mL (≈ 8030 µM) in the data set on Moraxella; 5000 µg/mL (≈ 8030 µM) in the data set with Ralstoniaeutropha.

`CCCCOC(=O)CCCCCCC/C=C\CCCCCCC(C)OC1OC(CO)C(O)C(O)C1OC1OC(CO)C(O)C(O)C1O` (centres unmarked) [SL-E-3]: the values for the MIC with Phytophthorainfestans, against A. solani (setting [1]) and with Alternariatomatophilia (setting [2]) were 1250 µg/mL (≈ 1840 µM), 1250 µg/mL (≈ 1840 µM) and 150 µg/mL (≈ 221 µM), respectively. For the same compound, the “number of pathogens active against” value in the data set with pathogens is “three”.
